According to patent US6503881B2 (priority 1996, dated 2003):
Like-named read-outs stand apart in the source and are kept apart here.

Tested on: bacteria
[1] = A. calcoaceticus AC002, agarose dilution
[2] = E. cloacae ECL007, agarose dilution
[3] = E. coli ECO005, agarose dilution
[4] = E. faecalis EFS001, agarose dilution
[5] = E. faecalis EFS008, agarose dilution
[6] = K. pneumoniae KP001, agarose dilution
[7] = P. aeruginosa PA004, agarose dilution
[8] = S. aureus SA014, agarose dilution
[9] = S. aureus SA093, agarose dilution
[10] = S. epidermidis SE010, agarose dilution
[11] = S. maltophilia SMA002, agarose dilution
[12] = S. marcescens SMS003, agarose dilution

In the case of I L K K W P W W P W R R M [MBI 11D12H], the MIC (A. calcoaceticus AC001) is reported as over 64 µg/mL, the MIC (E. cloacae ECL007) is reported as over 64 µg/mL and the MIC (E. coli ECO003) is reported as 64 µg/mL. For the same substance, the MIC (E. faecalis EFS004) was 16 µg/mL, the MIC (K. pneumoniae KP002) was over 64 µg/mL and the MIC (P. aeruginosa PA004) was over 64 µg/mL. For the same substance, the MIC (S. aureus SA014) was 16 µg/mL, the MIC (S. maltophilia SMA002) was over 64 µg/mL and the MIC (S. marcescens SMS004) was over 64 µg/mL.

I L K K W V W W V W R R K [MBI 11F1CN] showed an MIC (E. cloacae ECL007) of over 128 µg/mL, an MIC (E. coli ECO003) of 8 µg/mL and an MIC (E. faecalis EFS004) of 16 µg/mL. It also gave an MIC (E. faecium EFM003) of 2 µg/mL, an MIC (K. pneumoniae KP002) of 32 µg/mL and an MIC (P. aeruginosa PA004) of 64 µg/mL. The MIC (S. aureus SA009) was 2 µg/mL, the MIC (S. marcescens SBSM1) was over 128 µg/mL and the MIC (S. marcescens SMS003) was over 128 µg/mL.

Work on I L K K W W W P W R R K [MBI 11G4CN] yielded an MIC (A. calcoaceticus AC002) of 4 µg/mL, an MIC (E. cloacae ECL007) of over 128 µg/mL and an MIC (E. coli ECO005) of 32 µg/mL. For the same substance, the MIC (E. faecalis EFS002) was 32 µg/mL, the MIC (E. faecium EFM003) was 1 µg/mL and the MIC (K. pneumoniae KP001) was over 128 µg/mL. It also gave an MIC (P. aeruginosa PA004) of over 128 µg/mL, an MIC (S. aureus SA004) of 1 µg/mL and an MIC (S. epidermidis SE010) of 2 µg/mL. The MIC (S. maltophilia SMA002) was 64 µg/mL and the MIC (S. marcescens SMS003) was over 128 µg/mL.

Work on W R W W K P K W R W P K W [MBI 11J02CN] yielded an MIC [1] of 4 µg/mL, an MIC [2] of 64 µg/mL and an MIC [3] of 4 µg/mL. The MIC [4] was 4 µg/mL, the MIC [5] was 16 µg/mL and the MIC [6] was 4 µg/mL. It also gave an MIC [7] of 32 µg/mL, an MIC [8] of 2 µg/mL and an MIC [9] of 1 µg/mL. For the same substance, the MIC [10] was 2 µg/mL, the MIC [11] was 8 µg/mL and the MIC [12] was over 128 µg/mL.

W W P W R R K [MBI 11D9M8] gave an MIC [1] of 128 µg/mL, an MIC [2] of over 128 µg/mL and an MIC [3] of over 128 µg/mL. For the same substance, the MIC [4] was 8 µg/mL, the MIC (E. faecalis EFS002) was 128 µg/mL and the MIC [5] was 128 µg/mL. It also gave an MIC (E. faecium EFM002) of 32 µg/mL, an MIC [6] of over 128 µg/mL and an MIC [7] of over 128 µg/mL. For the same substance, the MIC (S. aureus SA007) was 32 µg/mL, the MIC [8] was 128 µg/mL and the MIC (S. aureus SA016) was 128 µg/mL. It also gave an MIC [9] of 8 µg/mL, an MIC [10] of 128 µg/mL and an MIC [11] of over 128 µg/mL. The MIC [12] was over 128 µg/mL.

In the case of “ILKKWPWWPWRRKMILKKAGS [MBI 11D4CN]”, the MIC (A. calcoaceticus AC001) is reported as over 64 µg/mL, the MIC (E. cloacae ECL007) is reported as over 64 µg/mL and the MIC (E. coli ECO003) is reported as 64 µg/mL. It also gave an MIC (E. faecalis EFS002) of 16 µg/mL, an MIC (E. faecium EFM002) of 1 µg/mL and an MIC (K. pneumoniae KP002) of over 64 µg/mL. It also gave an MIC (P. aeruginosa PA004) of over 64 µg/mL, an MIC (S. aureus SA009) of 4 µg/mL and an MIC (S. maltophilia SMA001) of over 64 µg/mL. It also gave an MIC (S. marcescens SMS004) of over 64 µg/mL.

I L R R W P W W P W R K [MBI 11B2CN] gave an MIC (A. calcoaceticus AC001) of 64 µg/mL, an MIC (E. cloacae ECL007) of over 128 µg/mL and an MIC (E. coli ECO003) of 16 µg/mL. The MIC (E. faecalis EFS004) was 8 µg/mL, the MIC (E. faecium EFM001) was 8 µg/mL and the MIC (K. pneumoniae KP002) was 64 µg/mL. For the same substance, the MIC (P. aeruginosa PA003) was over 128 µg/mL, the MIC (S. aureus SA005) was 2 µg/mL and the MIC (S. maltophilia SMA002) was 64 µg/mL. For the same substance, the MIC (S. marcescens SMS004) was over 128 µg/mL.

For I L R W P W W P W R R K [MBI 11B7CNF12], the MIC [1] was 4 µg/mL, the MIC [2] was over 128 µg/mL and the MIC [3] was 16 µg/mL. It also gave an MIC [4] of 2 µg/mL, an MIC [5] of 8 µg/mL and an MIC [6] of 16 µg/mL. The MIC [7] was over 128 µg/mL, the MIC [8] was 2 µg/mL and the MIC [9] was 1 µg/mL. It also gave an MIC [10] of 4 µg/mL, an MIC [11] of 64 µg/mL and an MIC [12] of over 128 µg/mL.

Work on “ILKKWPWWPWRRIMILKKAGS [MBI 11D6CN]” yielded an MIC (A. calcoaceticus AC002) of 4 µg/mL, an MIC (E. cloacae ECL007) of over 32 µg/mL and an MIC (E. coli ECO002) of 32 µg/mL. It also gave an MIC (E. faecalis EFS002) of 4 µg/mL, an MIC (E. faecium EFM003) of 1 µg/mL and an MIC (K. pneumoniae KP002) of over 64 µg/mL. For the same substance, the MIC (P. aeruginosa PA024) was over 64 µg/mL, the MIC (S. aureus SA009) was 8 µg/mL and the MIC (S. epidermidis SE010) was 4 µg/mL. The MIC (S. maltophilia SMA001) was over 64 µg/mL and the MIC (S. marcescens SMS004) was over 64 µg/mL.

I L K K W P W W P W R R K [MBI 11CNW1] was tested, and the MIC (A. calcoaceticus AC002) was 8 µg/mL, the MIC (E. cloacae ECL007) was 64 µg/mL and the MIC (E. coli ECO005) was 32 µg/mL. The MIC (E. faecalis EFS001) was 8 µg/mL, the MIC (K. pneumoniae KP001) was 32 µg/mL and the MIC (P. aeruginosa PA004) was 64 µg/mL. For the same substance, the MIC (S. aureus SA010) was 4 µg/mL, the MIC (S. maltophilia SMA002) was 32 µg/mL and the MIC (S. marcescens SMS003) was over 128 µg/mL.

Work on I L K K Y P W Y P W R R K [MBI 11A5CN] yielded an MIC (A. calcoaceticus AC001) of over 128 µg/mL, an MIC (E. cloacae ECL007) of over 128 µg/mL and an MIC (E. coli ECO003) of 128 µg/mL. The MIC (E. faecalis EFS002) was 32 µg/mL, the MIC (E. faecium EFM003) was 4 µg/mL and the MIC (K. pneumoniae KP001) was over 128 µg/mL. It also gave an MIC (P. aeruginosa PA003) of over 128 µg/mL, an MIC (S. aureus SA002) of 6 µg/mL and an MIC (S. maltophilia SMA002) of over 128 µg/mL. For the same substance, the MIC (S. marcescens SMS003) was over 128 µg/mL.

For I L K K W P W W W R R K [MBI 11G5CN], the MIC (A. calcoaceticus AC002) was 4 µg/mL, the MIC (E. cloacae ECL007) was over 128 µg/mL and the MIC (E. coli ECO003) was 16 µg/mL. The MIC (E. faecalis EFS002) was 16 µg/mL, the MIC (E. faecium EFM002) was 8 µg/mL and the MIC (K. pneumoniae KP001) was over 128 µg/mL. For the same substance, the MIC (P. aeruginosa PA003) was over 128 µg/mL, the MIC (S. aureus SA012) was 4 µg/mL and the MIC (S. epidermidis SE002) was 2 µg/mL. The MIC (S. maltophilia SMA002) was 64 µg/mL and the MIC (S. marcescens SMS004) was over 128 µg/mL.

I L K W P W W P W R R K [MBI 11B3CN] was tested, and the MIC (A. calcoaceticus AC001) was 64 µg/mL, the MIC (E. cloacae ECL007) was over 128 µg/mL and the MIC (E. coli ECO002) was 16 µg/mL. The MIC (E. faecalis EFS001) was 16 µg/mL, the MIC (E. faecium EFM001) was 8 µg/mL and the MIC (K. pneumoniae KP002) was 64 µg/mL. It also gave an MIC (P. aeruginosa PA003) of over 128 µg/mL, an MIC (S. aureus SA010) of 4 µg/mL and an MIC (S. maltophilia SMA002) of 32 µg/mL. For the same substance, the MIC (S. marcescens SMS004) was over 128 µg/mL.

With I L K K W P W W P W R R K [MBI 11CNX1] the MIC (A. calcoaceticus AC001) was over 64 µg/mL, the MIC (E. cloacae ECL007) was over 64 µg/mL and the MIC (E. coli ECO005) was 64 µg/mL. The MIC (E. faecalis EFS004) was 16 µg/mL, the MIC (K. pneumoniae KP001) was over 64 µg/mL and the MIC (P. aeruginosa PA024) was over 64 µg/mL. For the same substance, the MIC (S. aureus SA006) was 2 µg/mL, the MIC (S. maltophilia SMA002) was over 64 µg/mL and the MIC (S. marcescens SMS003) was over 64 µg/mL.

For I L K K W P W W P R R K [MBI 11G6ACN], the MIC (A. calcoaceticus AC002) was 4 µg/mL, the MIC (E. coli ECO005) was 64 µg/mL and the MIC (E. faecalis EFS008) was over 128 µg/mL. For the same substance, the MIC (S. aureus SA014) was 64 µg/mL, the MIC (S. epidermidis SE010) was 32 µg/mL and the MIC (S. maltophilia SMA002) was over 128 µg/mL.

Substance I L K K W P W W P W R R K [MBI 11M8] has an MIC (E. faecalis EFS002) of 32 µg/mL, an MIC (E. faecium EFM002) of 32 µg/mL and an MIC (S. aureus SA008) of 32 µg/mL.

For I L R W P W W P W A R K [MBI 11H10CN], the MIC [1] was 4 µg/mL, the MIC [2] was over 128 µg/mL and the MIC [3] was 16 µg/mL. It also gave an MIC [4] of 2 µg/mL, an MIC [5] of 8 µg/mL and an MIC [6] of 16 µg/mL. It also gave an MIC [7] of over 128 µg/mL, an MIC [8] of 4 µg/mL and an MIC [9] of 1 µg/mL. The MIC [10] was 4 µg/mL, the MIC [11] was 64 µg/mL and the MIC [12] was over 128 µg/mL.

Work on “I L K K W P W W P W R R I M [MBI 11D13H]” yielded an MIC (A. calcoaceticus AC001) of 64 µg/mL, an MIC (E. cloacae ECL007) of over 64 µg/mL and an MIC (E. coli ECO002) of 32 µg/mL. It also gave an MIC (E. faecalis EFS004) of 16 µg/mL, an MIC (K. pneumoniae KP002) of over 64 µg/mL and an MIC (P. aeruginosa PA004) of over 64 µg/mL. The MIC (S. aureus SA025) was 4 µg/mL, the MIC (S. maltophilia SMA002) was over 64 µg/mL and the MIC (S. marcescens SMS004) was over 64 µg/mL.

For “ILRWPWWPWRRKMILKKAGS [MBI 11B17CN]”, the MIC (A. calcoaceticus AC002) was 2 µg/mL, the MIC (E. cloacae ECL007) was over 128 µg/mL and the MIC (E. coli ECO005) was 8 µg/mL. It also gave an MIC (E. faecalis EFS008) of 4 µg/mL, an MIC (K. pneumoniae KP001) of 16 µg/mL and an MIC (P. aeruginosa PA004) of over 128 µg/mL. For the same substance, the MIC (S. aureus SA093) was 2 µg/mL, the MIC (S. epidermidis SE010) was 4 µg/mL and the MIC (S. maltophilia SMA002) was 32 µg/mL. The MIC (S. marcescens SMS003) was over 128 µg/mL.
